Drawing on a melting point compilation (Tetko et al.; mined from patent text by program, amines drawn as free bases though some values may be those of a salt), this text covers melting point for 89 molecules.

The structures appear in SMILES notation.

As a reminder, the melting point is the temperature of the solid-liquid transition. With `CC(C)(C)c1ccc(C(C)(C)C(=O)Oc2ccc(SCCCC(=O)O)cc2)cc1`, the melting point lay in the range of 86 to 87 °C.
On to `CCCC(=NOc1ccc(Cl)cc1)c1cc(Cl)ccc1NS(=O)(=O)C(F)(F)F`, for which the melting point is 62.5 to 64.5 °C.
`COc1ccc2c(=O)c(NC(=O)C(=O)O)coc2c1` registered a melting point of 236 to 238 °C.
Next, `c1ccc(CN2CCC(=C3c4ccsc4CCn4ccnc43)CC2)cc1`: 178 °C; `CCc1ccc(Br)c(CC)c1-n1cncc1C(=O)O`: 224 to 227 °C.
`COC1C(N(C)S(C)(=O)=O)c2cc(OCc3ccccc3)ccc2OC1(C)C` (centres undefined) returned a melting point of 119 to 121 °C.
Consider `N#Cc1cc(C(=O)Nc2cncnc2Cl)ccc1Cl`, for which the melting point fell in the range of 189 to 190 °C.
Molecule `O=C(O)c1cc(=O)c2cc(F)ccc2[nH]1` displayed a melting point of 206 to 210 °C.
For the molecule `COC(=O)C(Cl)=Cc1cccc([N+](=O)[O-])c1Cl`, the melting point lay within 110 to 112 °C.
`CC(C)Cc1cc(=O)c2cc(OCCCCCN3CCC(O)CC3)ccc2o1`: the melting point fell in the range of 98 to 99 °C.
With `O=C1CCCCc2cc(Cl)c(Cl)cc21`, the melting point was above 250 °C.
As for `O=C(NC(O)C(Cl)(Cl)Cl)c1cc([N+](=O)[O-])ccc1O` (centres undefined), the melting point fell in the range of 223 to 225 °C.
In turn, `O=C(O)CCCCCCCCCCCCCCCCCCCCCI` returned a melting point of 71 to 72 °C.
Molecule `Cc1cccc(-c2[nH]c(C(C)(C)C)nc2-c2ccnc(-c3ccc(CN(C)C)cc3)c2)n1` registered a melting point of 187 °C.
In turn, `O=C(O)CCC/C=C\C[C@H]1[C@@H]2CC[C@@H](C2)[C@@H]1NC(=O)c1ccc(S(=O)(=O)n2cccc2)s1` had a melting point of 113 to 114 °C.
`CCc1[nH]n(C2CCCC2)c2nc(Oc3ccccc3)nc(=O)c1-2` registered a melting point of 175 to 177 °C.
As for `Cn1nc(N)nc1NCCCOc1cccc(CN2C(=O)c3ccccc3C2=O)c1`, the figure is 55 to 57 °C; as for `CN(C)c1c(Cl)cc(C(O)C#Cc2ccc(C(=O)O)c(O)c2)cc1C(C)(C)C` (centres undefined), 175 °C.
As for `COc1ccc(Nc2ccncc2)c(C(=O)N2CCCCC2)c1`, the melting point was 176 to 178 °C.
For `CC(CNC(=O)c1ccc(Cl)nc1)Cn1ccnc1` (centres undefined), the melting point lay within 102 to 104 °C.
As for `O=C(O)c1nnc(-c2ccc(Cl)cc2)o1`, the figure is 277 to 284 °C; as for `N#Cc1ccc(NCc2cc3c(cc2O)CCO3)s1`, 158 to 160 °C; as for `CC(=O)OC[C@H]1OC(O)[C@H](OC(C)=O)[C@@H](F)[C@@H]1OC(C)=O` (some centres undefined), 115 to 120 °C.
As for `COC(=O)CCNC1(C)CCN(c2ncc3ncnc(Nc4ccc(F)c(Cl)c4)c3n2)CC1`, the melting point was in the range of 134 to 135 °C.
On to `Nc1csc2ccc([N+](=O)[O-])cc12`, for which the melting point fell in the range of 155 to 158 °C.
`CC(C)NCC(O)COc1nccnc1Cl` (centres undefined) yielded a melting point of 99 to 100 °C.
`CCCCCC1CCC(C2CCC(CC(O)CC)CC2)CC1` (centres undefined) gave a melting point of 131 °C.
For `COc1ccc(C(=O)N[C@H](C(=O)N2CCC[C@H]2C(=O)N[C@@H](C(C)C)[C@@H](O)C(F)(F)F)C(C)C)cc1`, the melting point fell in the range of 168 to 170 °C.
The molecule `Nc1ccccc1-c1cc2ccc(Cl)cc2[nH]c1=O` registered a melting point of 155 to 157 °C.
For the molecule `CCCc1ccc(-c2ncccc2S(=O)(=O)Nc2ncc(C)nc2OC)cc1`, the melting point lay in the range of 70 to 72 °C.
As for `Cn1ccnc1C(O)(c1ccccc1)c1ccc(Cl)cc1` (centres undefined), the melting point lay within 185 to 186 °C.
Regarding `N#Cc1cc(C(=O)NNC(=O)c2occc2-c2ccccc2OCc2ccccc2)ccc1O`, the melting point lay in the range of 118 to 120 °C.
`Oc1ccc(-c2nnnc(-c3cccc4ccccc34)c2-c2ccc(O)cc2O)c(O)c1` showed a melting point above 280 °C.
Consider `CC(=O)NCC1CCC(C(=O)N2CC2C#N)CC1` (centres undefined), for which the melting point fell in the range of 92 to 94 °C.
Next, `CC(O)c1cccc(Nc2ccccc2C(=O)O)c1Cl` (centres undefined): 169 to 171 °C; `COC(=O)Cc1ccccc1CSc1nc2cc(C(F)(F)F)ccc2s1`: 97 to 99 °C; `CCOC(=O)c1cnc(Nc2ccccc2OCC(C)C)[nH]c1=O`: 175 to 177 °C.
`CCOC(=O)CCNc1ncccc1NC(=O)c1ccc(Cl)cc1` displayed a melting point of 124 to 125 °C.
The molecule `CCONC(=O)c1cc(NCC2CCN(Cc3ccccc3)CC2)ccn1` displayed a melting point of 125 to 130 °C.
Next, `Cn1cc(C2CCC3(CC2)OCCO3)c2cc(C#N)ccc21`: 170 to 172 °C; `COc1ccc(C(=O)OC2C(OC)C=C(C)C(=O)CC2(C)C)cc1` (centres undefined): 100 to 101 °C.
For the molecule `COc1ccc2c(c1)CCC1=C2CCC2(CC(C)C)C(=O)CC=C12` (centres undefined), the melting point fell in the range of 57 to 60 °C.
`CS(=O)(=O)N1CCN([C@@H](CNC(=O)c2ccc(OCc3ccc(C(F)(F)F)cc3)cc2)C(=O)NO)CC1` had a melting point of 192 °C.
Molecule `COc1ccc(/C=C/C(=O)/C=C/c2ccc(C(F)(F)F)cc2)cc1` came in with a melting point of 144 to 146 °C.
For the molecule `NCc1cccc(Cn2ccc(OCc3ccc(F)cc3F)c(Br)c2=O)c1F`, the melting point lay in the range of 160 to 163 °C.
With `COc1ccc(-c2nc(CNC(=O)CCC(=O)O)sc2-c2ccc(OC)cc2)cc1`, the melting point fell in the range of 110 to 116 °C.
Consider `Cc1ccc(N2CCN3C(=O)CCC3C2=O)cc1` (centres undefined), for which the melting point was in the range of 115 to 117 °C.
Next, `O=C(O)CCOc1cccc2c1Cc1sc(SCCC(c3ccccc3)c3ccccc3)nc1-2`: 113 to 114 °C; `COC(=O)C1=C(C)NC(CO)=C(C(=O)OC)C1c1ccccc1C#N` (centres undefined): 177 to 178 °C.
`CCOC(=O)CC(=O)c1ccc(OCc2ccccc2)cc1C` showed a melting point of 59 to 60 °C.
Next, `COC(=O)c1c(-c2ccccc2)n[nH]c1C`: 119 to 120 °C; `CNc1nnc(SCc2ccccn2)s1`: 73 to 75 °C.
For the molecule `CC(C)(C)OC(=O)NC(Cc1ccccc1)C(=O)NC1N=C(c2ccccc2)c2ccccc2NC1=O` (mixture of isomers), the melting point was 143 to 153 °C.
Next, `CCOC(=O)C1(Nc2ccc(C(O)(C(F)(F)F)C(F)(F)F)cc2)CCC(C(C)(C)C)CC1` (centres undefined): 107 °C; `CCCCN=C(CS(C)=O)c1ccccc1O` (centres undefined): 128 to 129 °C.
Molecule `O=C(Nc1ccc(-c2ccccc2)cc1)c1cccc([N+](=O)[O-])c1O` showed a melting point of 152 °C.
Next, `CN1CC(OC(=O)C(c2ccccc2)c2ccccc2)CNC1=N[N+](=O)[O-]` (centres undefined): 187 °C.
`CCCc1cccc(N2CC(=O)NC(=O)N2)c1`: the melting point is 188 to 190 °C.
`CC=CCN(CCC12CC3CC(CC(C3)C1)C2)C(=O)NCCCc1ccncc1` displayed a melting point of 89.5 to 93.5 °C.
Next, `O=C(O)CCCNC(=O)c1ccccc1NC(=O)c1ccc(Cl)cc1`: 182 to 184 °C; `N#Cc1cc2c(c(C(=O)O)c1)NCCC2`: 238 °C.
As for `CCN1CCN(c2ccc(-c3[nH]nc4c3C(=O)c3c(NC(=O)NN5CCOCC5)cccc3-4)cc2)CC1`, the figure is 245 °C.
As to `CC(=O)c1cc2c(s1)CCCC1CC(=O)N(c3ccc(Cl)cc3)N=C21` (centres undefined), the melting point fell in the range of 128 to 130 °C.
Molecule `Cc1cc(C(=O)Nc2cnccc2C)c2c(C)nn(-c3ccccc3)c2n1` yielded a melting point of 227 to 228 °C.
Regarding `Cc1ccc(CN2C(=O)C(C)Oc3c(C(=O)NC4CN5CCC4CC5)cc(Cl)cc32)cc1` (centres undefined), the melting point was 156 °C.
`CC(C)c1ccc(N(C)C(=O)Cn2cnc3[nH]c(=O)n(C)c(=O)c32)cc1` had a melting point of 271 to 273 °C.
`CN(CCOc1ccc(C=C2SC(=O)NC2=O)cc1)c1ncccn1` showed a melting point of 189 to 190 °C.
Next, `CS(=O)c1ccccc1CN1CCC(=O)C(C(c2ccc(F)cc2)c2ccc(F)cc2)C1` (centres undefined): 187 to 189 °C; `C#CCNC(NCCSCc1[nH]cnc1C)=C(C#N)C#N`: 112 to 115 °C; `COc1cccc(C(=O)Nc2c[nH]nc2C(=O)NCCC#N)c1`: 118 to 121 °C.
`Brc1cn2c(Br)cnc2c(N2CCOCC2)n1`: the melting point came out at 141 °C.
The molecule `CC(=O)OC(C)(C(=O)O)c1ccc(-c2ccccc2)c(F)c1` (centres undefined) yielded a melting point of 125 to 127 °C.
On to `CC(C)(O)C(=O)c1ccc(OCC(=O)O)cc1`, for which the melting point is 131 to 134 °C.
The molecule `O=[N+]([O-])c1ccc(C=Cc2ccc(Cl)c(Cl)c2)cc1` came in with a melting point of 190 to 191 °C.
As to `CCOCc1nc2c(N)nc3ccccc3c2n1CCc1cc(-c2ccc(F)cc2)no1`, the melting point was in the range of 180 to 181 °C.
`O=C1[C@H]2CCC[C@H]2N(C(=O)CCn2ccnc2)c2ccccc2N1Cc1ccccc1` (relative stereo) had a melting point of 150 to 152 °C.
Next, `Cn1nc2c(N)nc3c(c2c1CCNC(=O)N1CCOCC1)CCCC3`: 187 to 188 °C; `O=C(O)c1cc(F)cc(C(F)(F)F)c1O`: 76 to 83 °C.
The molecule `CC(C)C(SC(=O)c1ccccc1)C(=O)NCC(=O)O` (centres undefined) gave a melting point of 136 to 137 °C.
In the case of `CCOC(=O)C1=C(C)NC(SCc2ccc(OC)cc2)=NC1c1cccc(Cl)c1Cl` (centres undefined), the melting point was in the range of 134 to 135 °C.
As for `CC(C)(O)CCC[C@@](C)(CC#CC(O)(C(F)(F)F)C(F)(F)F)[C@H]1CC[C@H]2[C@@H](O)CCC[C@]12C`, the melting point lay in the range of 146 to 147 °C.
In turn, `COc1c(C)cc2c(c1C)C(C)(C)CN2C(=O)C(C)(C)C` registered a melting point of 103 to 104 °C.
As to `CC(=O)NC[C@H]1CN(c2cc(F)c(N3CCC4(CC3)CO4)c(F)c2)C(=O)O1`, the melting point lay in the range of 160 to 162 °C.
Turning to `COc1ccc(-c2ccc(Cl)nn2)c(OCC(O)CNC(C)C)c1` (centres undefined), the melting point was 128 to 129 °C.
As for `CC(CCc1ccc(C(C)C(=O)O)cc1)C(=O)O` (centres undefined), the melting point fell in the range of 107 to 109 °C.
As for `CC(C)C(C)C=CC(C)C1CCC2C3CC(=O)C4CC=CCC4(C)C3CCC12C` (centres undefined), the figure is 118 to 120 °C.
The molecule `CC1(CCCN2CC[C@H](CNC(=O)c3cc(Cl)c(N)c4c3OCC4)[C@H](O)C2)OCCO1` (relative stereo) came in with a melting point of 118 °C.
Next, `O=C(O)CCCCCCCCCCCCCCCCCCCCCN1C(=O)C=CC1=O`: 106 °C; `CCCCC[C@@H](COc1ccc(C(=O)O)cc1)c1ccc2c(c1)C(C)(C)CCC2(C)C`: 74 to 76 °C.
